ChEMBL document CHEMBL1201862, “PubChem BioAssay data set” (2004)
Calls of active or inactive are those of the source.

Assays:
[1] = target: DNA dC->dU-editing enzyme APOBEC-3G (Homo sapiens, UniProt Q9HC16); type: functional;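 also: Dose-response counterscreen measuring inhibition of APOBEC3G DNA deaminase activity, run while confirming APOBEC3A inhibitors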
[2] = target: DNA dC->dU-editing enzyme APOBEC-3A (Homo sapiens, UniProt P31941); assay: Dose Response confirmation of small molecule APOBEC3A DNA Deaminase Inhibitors via a fluorescence-based single-stranded DNA deaminase assay. [Related pubchem assays (depositor defined):AID493011, AID493024]; type: functional
Sequence of DNA dC->dU-editing enzyme APOBEC-3A (P31941 whole entry): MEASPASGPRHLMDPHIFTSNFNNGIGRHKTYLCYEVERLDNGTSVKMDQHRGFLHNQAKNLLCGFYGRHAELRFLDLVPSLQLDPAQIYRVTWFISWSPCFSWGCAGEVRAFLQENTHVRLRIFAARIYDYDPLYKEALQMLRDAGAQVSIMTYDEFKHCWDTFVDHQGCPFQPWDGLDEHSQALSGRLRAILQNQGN

[3] = target: T1, Short transient receptor potential channel 4 (Mus musculus, UniProt Q9QUQ5); assay: block of DAMGO-driven TRPC4 calcium entry – cell-based, HEK293 TRPC4/mu-opioid, Fluo-4 calcium, dose response (AID 434942); type: functional;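 also: potency of inhibitors blocking the TRPC4 calcium response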
T1 sequence (Q9QUQ5 whole entry): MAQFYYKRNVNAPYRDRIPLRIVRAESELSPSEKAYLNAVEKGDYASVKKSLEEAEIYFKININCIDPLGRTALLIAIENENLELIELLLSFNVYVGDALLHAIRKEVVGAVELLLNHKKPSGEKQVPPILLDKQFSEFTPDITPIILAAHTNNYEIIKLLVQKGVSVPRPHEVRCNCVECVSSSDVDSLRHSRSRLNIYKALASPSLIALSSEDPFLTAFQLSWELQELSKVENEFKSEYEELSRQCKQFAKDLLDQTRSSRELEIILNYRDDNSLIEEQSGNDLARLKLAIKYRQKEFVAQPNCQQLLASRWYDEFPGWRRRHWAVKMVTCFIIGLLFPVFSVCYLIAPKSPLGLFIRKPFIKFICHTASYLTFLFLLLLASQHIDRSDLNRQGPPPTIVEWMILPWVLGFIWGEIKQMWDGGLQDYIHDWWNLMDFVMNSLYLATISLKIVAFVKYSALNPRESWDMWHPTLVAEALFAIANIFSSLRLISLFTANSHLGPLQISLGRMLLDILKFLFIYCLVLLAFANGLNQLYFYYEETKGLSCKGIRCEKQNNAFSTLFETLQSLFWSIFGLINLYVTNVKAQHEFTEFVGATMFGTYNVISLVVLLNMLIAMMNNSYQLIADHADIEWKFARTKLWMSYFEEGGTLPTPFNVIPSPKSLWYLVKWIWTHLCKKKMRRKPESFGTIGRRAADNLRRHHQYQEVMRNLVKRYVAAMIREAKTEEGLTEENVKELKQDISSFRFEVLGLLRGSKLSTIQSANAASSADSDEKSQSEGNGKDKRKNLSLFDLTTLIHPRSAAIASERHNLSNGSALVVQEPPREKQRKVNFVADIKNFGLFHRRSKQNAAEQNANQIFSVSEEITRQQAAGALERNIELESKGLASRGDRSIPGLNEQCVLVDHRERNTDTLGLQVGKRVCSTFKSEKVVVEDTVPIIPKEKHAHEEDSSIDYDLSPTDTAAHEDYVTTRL

[4] = target: Cytochrome P450 2C9 (Homo sapiens, UniProt P11712)
Sequence of Cytochrome P450 2C9 (P11712 whole entry): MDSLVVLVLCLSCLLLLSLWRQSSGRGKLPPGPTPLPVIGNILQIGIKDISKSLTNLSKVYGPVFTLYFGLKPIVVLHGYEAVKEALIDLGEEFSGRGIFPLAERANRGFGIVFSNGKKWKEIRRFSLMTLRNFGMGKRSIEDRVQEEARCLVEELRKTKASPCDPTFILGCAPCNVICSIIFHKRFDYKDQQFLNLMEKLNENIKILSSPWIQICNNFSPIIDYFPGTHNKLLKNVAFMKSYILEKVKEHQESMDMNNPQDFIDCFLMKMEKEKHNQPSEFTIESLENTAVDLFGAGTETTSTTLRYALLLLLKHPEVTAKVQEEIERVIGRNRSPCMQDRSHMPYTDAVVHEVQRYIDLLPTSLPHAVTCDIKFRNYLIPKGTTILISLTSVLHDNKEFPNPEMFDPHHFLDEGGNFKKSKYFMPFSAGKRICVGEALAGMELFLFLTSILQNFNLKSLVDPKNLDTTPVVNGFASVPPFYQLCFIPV

[5] = Luminescence Cell-Based Dose Retest to Confirm Inhibitors of Cancer Stem Cells. [Related pubchem assays (depositor defined):AID2717, AID2721]; type: functional; conditions: Homo sapiens
[6] = NIH3T3 cell viability loss – ATP luminescence, mouse fibroblasts, counter-screen, dose response (AID 2010); type: functional, cell-based;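 also: cells exposed to compound for about 90 hours before reading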
[7] = HEK-293T viability loss after treatment – luminescence, T-cell screen hits, cytotoxicity control for TCR NF-kB inhibitor project, dose response (AID 489026); type: functional, cell-based;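 also: cells exposed to compound about 14 hours before the viability readout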
[8] = Trypanosoma cruzi growth suppression in host cells – NIH3T3 host cells, beta-gal luminescence, confirmation (AID 2044); type: functional, cell-based;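 also: intracellular parasites grown in NIH/3T3 mouse fibroblasts as host cells; luminescent beta-galactosidase reporter signal from transgenic T. cruzi replicating inside host cells; inhibitors lower the luminescence signal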
[9] = target: Nonstructural protein 1 (Influenza A virus, UniProt Q194T2); type: functional, Influenza A virus (A/California/07/2009(H1N1))
Sequence of Nonstructural protein 1 (Q194T2 whole entry): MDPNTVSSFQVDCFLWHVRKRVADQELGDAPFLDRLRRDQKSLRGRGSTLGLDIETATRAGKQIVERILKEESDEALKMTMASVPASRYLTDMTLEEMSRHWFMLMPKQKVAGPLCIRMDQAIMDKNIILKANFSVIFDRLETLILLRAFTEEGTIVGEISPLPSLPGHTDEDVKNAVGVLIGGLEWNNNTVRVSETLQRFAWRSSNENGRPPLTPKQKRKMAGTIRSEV

[10] = target: Dual specificity tyrosine-phosphorylation-regulated kinase 1A (Rattus norvegicus, UniProt Q63470); type: biochemical, Homo sapiens
[11] = target: T2, Protein skinhead-1 (Caenorhabditis elegans, UniProt P34707); type: functional
T2 sequence (P34707 whole entry): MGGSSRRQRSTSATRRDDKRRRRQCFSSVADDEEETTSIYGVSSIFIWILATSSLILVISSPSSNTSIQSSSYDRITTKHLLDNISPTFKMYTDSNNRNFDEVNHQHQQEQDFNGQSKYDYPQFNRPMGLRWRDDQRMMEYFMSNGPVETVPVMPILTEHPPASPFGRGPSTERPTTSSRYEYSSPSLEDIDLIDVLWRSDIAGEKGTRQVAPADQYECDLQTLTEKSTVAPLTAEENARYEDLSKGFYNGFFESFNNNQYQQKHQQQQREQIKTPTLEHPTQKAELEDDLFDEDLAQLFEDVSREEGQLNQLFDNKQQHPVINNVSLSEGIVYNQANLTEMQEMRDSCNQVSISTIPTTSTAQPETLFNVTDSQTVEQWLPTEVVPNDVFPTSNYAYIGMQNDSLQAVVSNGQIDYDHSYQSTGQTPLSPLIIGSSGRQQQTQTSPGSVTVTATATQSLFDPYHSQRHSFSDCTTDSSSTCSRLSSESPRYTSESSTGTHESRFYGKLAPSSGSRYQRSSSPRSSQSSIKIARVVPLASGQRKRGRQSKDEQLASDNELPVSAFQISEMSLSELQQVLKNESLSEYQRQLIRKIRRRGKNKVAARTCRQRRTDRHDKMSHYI

[12] = target: T3, Carboxy-terminal domain RNA polymerase II polypeptide A small phosphatase 1 (Homo sapiens, UniProt Q9GZU7); assay: CTDSP1 inhibitors, concentration-response, biochemical, absorbance readout, ultra-high-throughput screen actives (AID 540297); type: functional
T3 sequence (Q9GZU7 whole entry): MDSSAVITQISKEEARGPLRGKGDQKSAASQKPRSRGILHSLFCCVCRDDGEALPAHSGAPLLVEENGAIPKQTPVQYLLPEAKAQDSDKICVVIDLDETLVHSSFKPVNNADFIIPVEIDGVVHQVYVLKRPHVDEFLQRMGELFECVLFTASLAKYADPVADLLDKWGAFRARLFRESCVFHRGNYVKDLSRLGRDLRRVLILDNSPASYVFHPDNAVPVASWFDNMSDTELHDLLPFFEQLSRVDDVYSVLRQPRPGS

[13] = target: Heat shock protein HSP 90-alpha (Homo sapiens, UniProt P07900); type: functional, organism-based
[14] = non-specific 3'UTR reporter inhibition in Clone20-Shn3RL – cell-based, Renilla luciferase, cherry-picked, counter-screen for Shn3 inhibitor project, dose response (AID 624133); type: functional
[15] = reduction of Shn3 3'UTR-driven luciferase in osteoblasts – cell-based, Clone20 osteoblasts, firefly luciferase, cherry-picked, dose response (AID 624132); type: functional;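 also: firefly luciferase luminescence from reporter carrying the Shn3 3'UTR in osteoblasts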
[16] = NIH-3T3 fibroblast cytotoxicity, dose response, cytotoxicity control, cell-based, fluorescence, Alamar Blue, secondary assay (AID 2327); type: functional;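 also: NIH-3T3 mouse fibroblasts cultured with fluconazole at 8 µg/mL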
[17] = target: T4, Microphthalmia-associated transcription factor (Homo sapiens, UniProt O75030); assay: reducers of TRPM1 reporter luminescence, concentration series – cell-based, SK-MEL-5, cherry-picked, set 3, MITF inhibitor project, dose response (AID 493073); type: functional;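 also: SK-MEL-5 melanoma cells with luciferase driven by the MITF target TRPM1 promoter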
T4 sequence (O75030 whole entry): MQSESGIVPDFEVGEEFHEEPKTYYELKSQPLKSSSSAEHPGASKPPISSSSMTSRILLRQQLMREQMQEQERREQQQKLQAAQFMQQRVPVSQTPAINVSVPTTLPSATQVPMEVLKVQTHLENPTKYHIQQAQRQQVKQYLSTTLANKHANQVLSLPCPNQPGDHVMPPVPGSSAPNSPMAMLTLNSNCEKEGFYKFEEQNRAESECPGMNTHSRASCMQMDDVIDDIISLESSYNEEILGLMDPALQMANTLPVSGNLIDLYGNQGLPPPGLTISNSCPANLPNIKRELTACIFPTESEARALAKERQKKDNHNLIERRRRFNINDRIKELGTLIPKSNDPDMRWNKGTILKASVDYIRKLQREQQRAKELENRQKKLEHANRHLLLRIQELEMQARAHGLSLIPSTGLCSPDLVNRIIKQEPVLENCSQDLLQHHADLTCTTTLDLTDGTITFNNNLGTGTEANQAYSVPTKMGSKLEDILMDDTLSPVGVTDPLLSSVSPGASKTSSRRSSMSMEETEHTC

[18] = test system: INS1; assay: INS-1E survival protection against cytokine death – cell-based, luminescence, retest, dose response (AID 449756); type: functional; conditions: Rattus norvegicus;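 also: cell death triggered by IL-1 beta plus TNF-alpha plus IFN-gamma mixture; protective hits raise ATP signal compared with cytokine alone wells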
[19] = fluconazole-exposed Candida albicans growth modulators – fluorescence, retest, confirmation (AID 2467); type: functional, cell-based
[20] = Vero E6 cell cytotoxicity, dose response, cytotoxicity control for non-replicating M. tuberculosis project, secondary assay (AID 492998); type: functional, VeroE6; conditions: Vero C1008
[21] = cells; type: functional
[22] = THP-1 cell cytotoxicity, dose response, cytotoxicity control for non-replicating M. tuberculosis project (AID 489025); type: functional
[23] = cells; type: functional, cell-based

Sequence of DNA dC->dU-editing enzyme APOBEC-3G (Q9HC16 whole entry): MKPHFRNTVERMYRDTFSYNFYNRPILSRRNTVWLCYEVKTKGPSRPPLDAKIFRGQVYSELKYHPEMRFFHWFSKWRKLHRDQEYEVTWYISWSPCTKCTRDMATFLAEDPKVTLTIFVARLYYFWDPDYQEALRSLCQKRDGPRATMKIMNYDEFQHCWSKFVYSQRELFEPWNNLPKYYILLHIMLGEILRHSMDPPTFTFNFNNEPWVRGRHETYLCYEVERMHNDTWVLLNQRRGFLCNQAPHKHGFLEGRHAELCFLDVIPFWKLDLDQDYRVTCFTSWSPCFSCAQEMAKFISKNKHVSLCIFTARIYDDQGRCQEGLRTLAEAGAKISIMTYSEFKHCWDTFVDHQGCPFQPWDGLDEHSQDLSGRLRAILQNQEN

Structure (SMILES): CCSCc1nnc(SCC(=O)Nc2ccc(OC)cc2)n1C
- IC50 [1]: 4.91 µM (active)
- IC50 [2]: 3.08 µM (active)

Structure (SMILES): COc1ccc(CN2CCN(Cc3ccc(C(F)(F)F)cc3)CC2)c(OC)c1
- EC50 [3]: 2.66 µM (active)

Structure (SMILES): Cc1cc2c(cc1S(N)(=O)=O)S(=O)(=O)CCC2
- AC50 [4]: inconclusive

Structure (SMILES): COc1cc(Nc2ccc(C)cc2)c([N+](=O)[O-])nc1[N+](=O)[O-]
- AC50 [5]: 3.51 µM (active)
- EC50 [6]: > 60 µM (not active)
- IC50 [7]: > 80 µM (inactive)
- EC50 [8]: 3.02 µM (active)

Structure (SMILES): O=C(NCCN1CCOCC1)c1cc2sccc2n1Cc1ccc(Cl)cc1
- IC50 [9]: > 100 µM (active)

Structure (SMILES): CC(=O)N(C[C@@H](C)C(=O)O)c1c(I)cc(I)c(N)c1I
- AC50 [4]: inconclusive

Structure (SMILES): CCN1CCN(c2ccc(S(=O)(=O)N3CCCCC3)cc2NC(=O)/C=C/c2ccc(F)cc2)CC1
- IC50 [1]: 7.23 µM (active)
- IC50 [2]: 4.6 µM (active)

Structure (SMILES): COc1ccc(N(C(=O)c2ccccc2C)S(=O)(=O)c2cccs2)cc1
- AC50 [5]: 0.17 µM (active)
- IC50 [7]: > 80 µM (inactive)

Structure (SMILES): CCC1CCCCN1Cc1nc2c(c(=O)n(C)c(=O)n2C)n1Cc1ccccc1 (stereo not given)
- EC50 [3]: 3.76 µM (active)

Structure (SMILES): O=C(Nc1cccc2nsnc12)c1ccc2c(c1)OCO2
- AC50 [10]: 11.7 µM (active)

Structure (SMILES): CCOc1cc(/C=C2\SC(N3CCCCC3)=NC2=O)ccc1O
- AC50 [10]: 0.678 µM (active)

Structure (SMILES): CCc1noc(C)c1C(=O)NNC(=O)c1cc(OC)c(OC)c(OC)c1
- IC50 [1]: 13.9 µM (active)
- IC50 [2]: 21.3 µM (active)

Structure (SMILES): CC(=O)Nc1cccc(-c2cnc3ccccc3n2)c1
- AC50 [10]: 6.1 µM (active)

Structure (SMILES): O=C(Nc1ccc(Br)cc1Cl)c1cnccn1
- IC50 [11]: > 100 µM (inactive)
- IC50 [12]: 4.67 µM (active)

Structure (SMILES): N=C(Nc1nc(-c2ccccn2)cc2ccccc12)c1ccccn1
- IC50 [9]: 39.6 µM (active)
- AC50 [13]: 2.76 µM (active)
- AC50 [14]: < 0.26 µM (active)
- AC50 [15]: < 0.26 µM (active)

Structure (SMILES): CCCOCc1ccc(O)c2ncccc12
- EC50 [16]: 16.2 µM (inconclusive)
- EC50 [6]: 8.03 µM (active)
- AC50 [17]: 15.5 µM (active)
- AC50 [18]: 3.29 µM (active)
- EC50 [19]: 2.75 µM (active)
- EC50 [8]: 2.5 µM (active)

Structure (SMILES): CN(C)CCCN(Cc1cc2cc3c(cc2nc1O)OCO3)C(S)=NCc1ccco1
- EC50 [3]: 0.421 µM (active)

Structure (SMILES): CCOc1ccc(NC(=O)c2oc3ccccc3c2NC(=O)CC)cc1
- AC50 [4]: inconclusive

Structure (SMILES): O=C(NCCc1ccccc1)c1cc2ncc(Br)cn2n1
- IC50 [1]: > 100 µM (inactive)
- IC50 [2]: 12.8 µM (active)

Structure (SMILES): Cc1nc([N+](=O)[O-])c(Br)n1CC(=O)c1ccc(Cl)cc1
- CC50 [20]: 13 µM (active)
- IC50 [21]: 6.88 µM (active)
- CC50 [22]: 17.4 µM (active)

Structure (SMILES): CCCCN(C(=O)Cn1ncc(Cl)c(Cl)c1=O)c1c(N)n(CC(C)C)c(=O)[nH]c1=O
- IC50 [12]: 5.74 µM (active)

Structure (SMILES): Oc1ccc2ccc3[nH]cnc3c2c1
- AC50 [10]: 2.47 µM (active)

Structure (SMILES): C[C@@H](Cc1cccc(C(F)(F)F)c1)NCCOC(=O)c1ccccc1
- AC50 [4]: inconclusive

Structure (SMILES): O=c1oc2cc([N+](=O)[O-])ccc2nc1/C=C(\O)c1cccc(Br)c1
- EC50 [23]: > 350 µM (not active)

Structure (SMILES): COc1ccccc1N(C(=O)c1snc(C(N)=O)c1N)C(C(=O)NC1CCCC1)c1ccc2ncccc2c1 (stereo not given)
- EC50 [3]: 2.66 µM (active)

Structure (SMILES): CC(=O)OC1C2CCC1C([N+]1(C)CCCCC1)CC2 (stereo not given)
- IC50 [1]: 3.15 µM (active)
- IC50 [12]: 4.51 µM (active)
- IC50 [2]: 2.69 µM (active)

Structure (SMILES): CCN(CC)CC(=O)Nc1ccc(Cl)cc1C(=O)c1ccccc1
- EC50 [3]: 2.37 µM (active)

Structure (SMILES): Cc1c(N/N=C2/C(=O)NC(=O)N(Cc3ccccc3)C2=O)c(=O)n(-c2ccccc2)n1C
- IC50 [9]: 3.31 µM (active)

Structure (SMILES): O=C(N/N=C/c1cc([N+](=O)[O-])ccc1O)C1CCCCC1
- CC50 [20]: > 20 µM (active)
- IC50 [21]: 17.9 µM (active)
- CC50 [22]: 21.4 µM (active)

Structure (SMILES): O=[N+]([O-])c1ccccc1/C=C/C=N/Nc1nc(N2CCCCC2)nc(N2CCCCC2)n1
- IC50 [1]: 0.814 µM (active)
- IC50 [2]: 1.14 µM (active)

Structure (SMILES): Cc1ccc(-c2cc(C(=O)N/N=C/c3ccc(Cl)cc3)[nH]n2)o1
- IC50 [12]: 9.23 µM (active)
